Experimental data published in ChEMBL document CHEMBL3272183, “Analgesics. 1. Synthesis and analgesic properties of N-sec-alkyl- and N-tert-alkylnormorphines” (J Med Chem, 1978).
Active and inactive are the calls of the source. The rule behind the calls is not given here.

Columns and labels:
Opioid receptor [1] = molecular target: T1, Opioid receptor (Rattus norvegicus, UniProt P33533+P34975+P33535); test: Displacement of [3H]-naloxone from rat opioid receptor after 30 mins by liquid scintillation counting analysis in absence of NaCl; type: protein assay
Opioid receptor [2] = molecular target: T1, Opioid receptor; test: Displacement of [3H]-naloxone from rat opioid receptor after 30 mins by liquid scintillation counting analysis in presence of NaCl; type: protein assay
Mus musculus [3] = organism: Mus musculus; test: Analgesic activity in Swiss-Webster mouse measured for 20 mins by tail flick test; type: functional
Mus musculus [4] = organism: Mus musculus; test: Analgesic activity in Swiss-Webster mouse assessed as reduction of […]-induced writhing; type: functional
Mus musculus [5] = test: In vivo inhibition of morphine-induced straub-tail response in sc dosed Swiss-Webster mouse measured for 30 mins; type: functional; settings: for ED50: 0.5 h

Compound | IC50 (Opioid receptor [1]) | IC50 (Opioid receptor [2]) | ED50 (Mus musculus [3]) | ED50 (Mus musculus [4]) | ED50 (Mus musculus [5]) | inhibition (Mus musculus [5])
CCCC(C)N1CC[C@]23c4c5ccc(O)c4O[C@H]2[C@@H](O)C=C[C@H]3[C@H]1C5 (some centres not stated) | 37 nM | 340 nM | > 439 µmol/kg | 9 µmol/kg | 80.8 µmol/kg | –
CC(C)(Cc1ccccc1)N1CC[C@]23c4c5ccc(O)c4O[C@H]2[C@@H](O)C=C[C@H]3[C@H]1C5 | 1000 nM | 1000 nM | > 310 µmol/kg | > 176 µmol/kg | – | –
C=C[C@@H](C)N1CC[C@]23c4c5ccc(O)c4O[C@H]2[C@@H](O)C=C[C@H]3[C@H]1C5 | 27 nM | 80 nM | – | – | – | –
CCC(CC)N1CC[C@]23c4c5ccc(O)c4O[C@H]2[C@@H](O)C=C[C@H]3[C@H]1C5 | 78 nM | 175 nM | – | – | – | –
Oc1ccc2c3c1O[C@H]1[C@@H](O)C=C[C@H]4[C@@H](C2)N(C2CCCCC2)CC[C@@]341 | 38 nM | 92 nM | > 212 µmol/kg | 15.7 µmol/kg | – | –
C=C[C@H](C)N1CC[C@]23c4c5ccc(O)c4O[C@H]2[C@@H](O)C=C[C@H]3[C@H]1C5 | 16 nM | 25 nM | 105 µmol/kg | – | – | –
CCC(C)(C)N1CC[C@]23c4c5ccc(O)c4O[C@H]2[C@@H](O)C=C[C@H]3[C@H]1C5 | 1000 nM | 1000 nM | > 580 µmol/kg | > 290 µmol/kg | – | –
Oc1ccc2c3c1O[C@H]1[C@@H](O)C=C[C@H]4[C@@H](C2)N(CCc2ccccc2)CC[C@@]341 | 4.2 nM | 133 nM | 1.7 µmol/kg | 0.27 µmol/kg | – | inactive
CCCN1CC[C@]23c4c5ccc(O)c4O[C@H]2[C@@H](O)C=C[C@H]3[C@H]1C5 | 14 nM | 14 nM | 51 µmol/kg | 29 µmol/kg | 0.6 µmol/kg | –
Oc1ccc2c3c1O[C@H]1[C@@H](O)C=C[C@H]4[C@@H](C2)N(C2CCCC2)CC[C@@]341 | 34 nM | 45 nM | 124 µmol/kg | 15.5 µmol/kg | 15.5 µmol/kg | –
Oc1ccc2c3c1O[C@H]1[C@@H](O)C=C[C@H]4[C@@H](C2)N(C2CCCCCC2)CC[C@@]341 | 19 nM | 150 nM | > 136 µmol/kg | 9.9 µmol/kg | 60.8 µmol/kg | –
CN1CC[C@]23c4c5ccc(O)c4O[C@H]2[C@@H](O)C=C[C@H]3[C@H]1C5 [MORPHINE] | – | – | 10.5 µmol/kg | 1.5 µmol/kg | – | inactive
C=CC(C)(C)N1CC[C@]23c4c5ccc(O)c4O[C@H]2[C@@H](O)C=C[C@H]3[C@H]1C5 | > 1000 nM | > 1000 nM | > 295 µmol/kg | 74 µmol/kg | – | –
CC[C@H](C)N1CC[C@]23c4c5ccc(O)c4O[C@H]2[C@@H](O)C=C[C@H]3[C@H]1C5 | 28 nM | 62 nM | – | – | – | –
CC(Cc1ccccc1)N1CC[C@]23c4c5ccc(O)c4O[C@H]2[C@@H](O)C=C[C@H]3[C@H]1C5 (some centres not stated) | 3.4 nM | 125 nM | 4.3 µmol/kg | 0.13 µmol/kg | – | inactive
Oc1ccc2c3c1O[C@H]1[C@@H](O)C=C[C@H]4[C@@H](C2)N(C2C=CCCC2)CC[C@@]341 (some centres not stated) | 51 nM | 130 nM | 79.7 µmol/kg | – | 23.8 µmol/kg | –
C=CCN1CC[C@]23c4c5ccc(O)c4O[C@H]2[C@@H](O)C=C[C@H]3[C@H]1C5 [NALORPHINE] | 2 nM | 6 nM | – | 3.2 µmol/kg | – | –
CC[C@@H](C)N1CC[C@]23c4c5ccc(O)c4O[C@H]2[C@@H](O)C=C[C@H]3[C@H]1C5 | 60 nM | 110 nM | – | – | – | –
